The test system of test [1] is Ovalbumin-induced asthmatic late phase eosinophilia in the lung. In words: Ovalbumin-induced asthmatic late phase eosinophilia in the lung (guinea pigs). Type of test: in vivo. The procedure: (§1) The acute toxicity of the compounds of the invention in the mouse (expressed by the LD 50 mg/kg; method after Miller and Tainter: Proc. Soc. Exper. Biol. a. Med. 57 (1944) 261) is for example above 1000 mg/kg in oral application. More detailed information on the previously mentioned test models. The figures cited relate to the compounds of the invention, in particular the compounds according to Example I.
1. Ovalbumin-induced asthmatic late phase eosinophilia in the lung (guinea pigs)

The test system of test [2] is Asthma-induced by domestic dust mites. In words: Asthma induced by domestic dust mites (rabbits). Type of test: in vivo. As to conditions: 10 mg/ml as aerosol for 2 minutes. The protocol: as §1
2. Asthma-induced by domestic dust mites (rabbits)
Lit.: J. Allergy Clin. Immunol. 87, 1991, p. 312 Administration/dosage: 10 mg/ml as aerosol for 2 minutes

The test system of test [3] is Allergic bronchoconstriction. In words: Allergic bronchoconstriction according to Konzett-Rossler (rat). The settings on record: iv. Type of test: in vivo. The procedure: as §1
3. Allergic bronchoconstriction according to Konzett-Rossler (rat)
Lit.: Naunyn-Schmiedeb. Arch. Exp. Pathol. Pharmakol. 195, 1940, p. 71-74

The test system of another test is mast cells. In words: Allergically-induced histamine release from mast cells (rat). It counts as cell-based. As to conditions: Mast cell. The protocol:
as §1
1. Allergically-induced histamine release from mast cells (rat)

A further test has as its system monocytes. In words: Lipopolysaccharide-induced interleucin-1 production of monocytes (man). Type of test: cell-based. As to conditions: Homo sapiens, Monocyte. The procedure:
as §1
2. Lipopolysaccharide-induced interleucin-1 production of monocytes (man)

Another test has as its system alveolar macrophages. In words: Platelet-activating factor (Paf)-induced oxygen radical release from alveolar macrophages (guinea pig). As to conditions: Cavia porcellus, Macrophage. Type of test: cell-based. The protocol:
as §1
3. Platelet-activating factor (Paf)-induced oxygen radical release from alveolar macrophages (guinea pig)

In another test the target is T1, 5-Lipoxygenase (Rattus norvegicus, UniProt P12527).
T1 construct: endogenous in cells; host or cells: rat peritoneal macrophages
T1 sequence (P12527 1-673): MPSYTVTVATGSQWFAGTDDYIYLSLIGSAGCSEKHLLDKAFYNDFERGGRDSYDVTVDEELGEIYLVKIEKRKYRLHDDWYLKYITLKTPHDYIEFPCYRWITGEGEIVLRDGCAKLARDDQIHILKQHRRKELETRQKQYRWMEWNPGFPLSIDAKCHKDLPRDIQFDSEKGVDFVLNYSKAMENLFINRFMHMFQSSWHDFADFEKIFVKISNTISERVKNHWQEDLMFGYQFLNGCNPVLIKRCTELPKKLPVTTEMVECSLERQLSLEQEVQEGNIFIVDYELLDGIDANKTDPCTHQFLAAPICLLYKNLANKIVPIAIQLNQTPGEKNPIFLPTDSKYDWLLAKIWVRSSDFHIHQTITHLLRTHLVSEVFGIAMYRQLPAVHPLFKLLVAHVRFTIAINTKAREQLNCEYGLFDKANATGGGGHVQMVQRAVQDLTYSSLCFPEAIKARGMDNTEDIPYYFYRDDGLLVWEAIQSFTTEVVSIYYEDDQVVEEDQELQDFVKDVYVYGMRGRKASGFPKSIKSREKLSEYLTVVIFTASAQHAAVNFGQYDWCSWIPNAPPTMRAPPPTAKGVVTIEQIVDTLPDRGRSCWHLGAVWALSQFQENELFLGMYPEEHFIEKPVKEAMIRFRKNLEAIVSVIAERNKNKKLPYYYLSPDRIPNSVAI
In words: 5-Lipoxygenase inhibition in peritoneal macrophages (rat). Type of test: cell-based. The protocol:
as §1
4. 5-Lipoxygenase inhibition in peritoneal macrophages (rat)

The target in the next test is phosphordiesterase. In words: phosphordiesterase inhibition. Type of test: biochemical. The source says:
Examples for the compounds of Formula I

`O=c1[nH]c2ccc(O)nc2n2cccc12` [Example I, 4,5-Dihydro-8-hydroxy-4-oxo-pyrido[3,2-e]pyrrolo[1,2-a]pyrazine]: the “inhibition of asthmatic late phase eosinophilia in the lung” value is listed as 67% in test [1] (5 mg/kg/i.p.) and 98% in test [1] (10 mg/kg/i.p.). In test [2], the “Asthmatic late phase: inhibition” value is 51%. For the same compound, the “Bronchial hyperreactivity: inhibition” value in test [2] is listed as 51%. Also, the “Bronchoconstriction: inhibition” value in test [2] amounted to 49%. This compound also returned an ED50 in test [3] of 0.5 mg/kg. Moreover, the IC50 in the test with mast cells came out at 0.7 µM; with monocytes, 4.5 µM; in the test on alveolar macrophages, 6.1 µM; against 5-Lipoxygenase, 12 µM; at phosphordiesterase it was 32.2 µM.

As for `CN(C(=O)CCCCOc1ccc2[nH]c(=O)c3cccn3c2n1)C1CCCCC1` [D 20169], half-maximal inhibition against phosphordiesterase (IC50) required 7.34 µM.

Turning to `CNC(=O)CCCOc1ccc2[nH]c(=O)c3cccn3c2n1` [Example 98], the 50% inhibitory concentration (IC50) at phosphordiesterase stood at 15.1 µM.

For orientation: ED50 means the dose that gives a 50% effect, or the effect in half of the subjects. A word on the IC50: it is the concentration that inhibits the measured activity by half. A lower IC50 goes with inhibition by little substance.

(Values after US5405847A, “4,5-dihydro-4-oxo-pyrrolo[1,2-a]quinoxalinones and corresponding aza analogs and a process for their preparation” (Asta Medica Aktiengesellschaft, priority 1992, dated 1995).)
